Values after ≈ are worked out from the molar mass of the structure shown.
Key:
HPAF-II = test: Cytotoxicity MTT assay, HPAF-II; assay type: cell-based; settings: Homo sapiens, HPAF-II; read-out: Cytotoxicity IC50 HPAF-II
Method: (§1) Selected molecules were tested for cytotoxicity (IC50) in cancer and healthy cells via a MTT colorimetric assay.
(§2) Each cell was cultured in recommended medium by ATCC, and the IC50 data were obtained with each cell line.

Water solubility = assay type: physicochemical
L12210 = test: Cytotoxicity MTT assay, L12210; assay type: cell-based; settings: read-out: Cytotoxicity IC50 L12210
Method: as §1, §2

C. perfringens = assay type: cell-based; settings: FIG. 4
AsPc-1 cells = test: Synergistic assay (checkerboard), 11 and Paclitaxel; assay type: cell-based
Method: The FIC index was calculated according to the following equation. ΣFIC=FICA+FICB=CA/MICA+CB/MICB where MICA and MICB are MIC of drugs A and B, CA and CB are the concentrations of drugs A and B used in combination. In these interaction studies, ΣFIC of less than 0.5 represents synergistic activity.

NC[C@H]1O[C@@H](O[C@H]([C@H]2O[C@@H](n3ccc(=O)[nH]c3=O)[C@H](O)[C@@H]2O)[C@H](NCCCC(=O)NCc2ccc(N3CCC(Oc4ccc(C(F)(F)F)cc4)CC3)cc2)C(N)=O)[C@H](O)[C@@H]1O [Compound 11]
IC50 (HPAF-II): < 0.098 µM
Water solubility, times greater than 10 (Water solubility; relative to 10): 200 times
solubility (Water solubility; water): 22 mg/mL (≈ 25.4 mM)
IC50 (L12210): > 100 µM
Antibacterial activity against C. perfringens (C. perfringens): displayed antibacterial activity
Σ FIC (AsPc-1 cells; Entry 1: A 11 CA 14.2 nM + B Paclitaxel CB 0.4 nM): 0.224
Σ FIC (AsPc-1 cells; Entry 2: A 11 CA 14 nM + B Paclitaxel CB 0.88 nM): 0.16
Σ FIC (AsPc-1 cells; Entry 3: A 11 CA 14 nM + B Paclitaxel CB 7 nM): 0.27
Σ FIC (AsPc-1 cells; Entry 4: A 11 CA 220 nM + B Paclitaxel CB 40 nM): 0.224
Σ FIC (AsPc-1 cells; Entry 5: A 11 CA 110 nM + B Paclitaxel CB 88 nM): 0.114
IC50 (AsPc-1 cells; Homo sapiens, ASPC1, 11 alone, AsPc-1 cells, read-out: IC50 A): 0.982 µM
Effect of combination of 11 and Taxol (AsPc-1 cells; all five combinations): synergistic effect

Reference: patent US20240199677A1, “GLYCOSYLTRANSFERASE INHIBITORS” (CALIFORNIA INSTITUTE OF TECHNOLOGY, priority 2018, published 2024)
